Consider one substance from patent publication US12551424B2, “Oil-in-water type emulsification composition containing UV wavelength conversion substance” (Shiseido Company, Ltd., priority 2019, dated 2026).

The test system of test [1] is Human dermal fibroblasts. As to the kind of experiment: Restoration of cell activity decreased by prior UV irradiation (AlamarBlue). The class given is cell-based. The note with it: FIG. 5. How it is done: (§1) A cell sample was prepared as follows: • 1. Human dermal fibroblasts and human skin keratinocytes purchased from Kurabo Industries Ltd. were used. A cell suspension (1 mL) stored in liquid nitrogen was thawed in a water bath (37° C.) to an extent that small ice pellets remained, and then diluted with 9 mL of warm medium. • 2. The diluted suspension was mixed gently and then transferred to a T75 flask and incubated overnight at 37° C. • 3. The next day, the medium was replaced with 10 mL of fresh medium. • 4. The medium was replaced periodically (once every 2 days for fibroblasts and once every 2 to 3 days for keratinocytes) and cell proliferation was continued. Meanwhile, the cells were observed using a microscope, and it was confirmed that the cells grew in the correct form. • 5. After the cells reached about 80% confluence, the cells were passaged. The cells were passaged by washing the cells once with 10 mL of warm PBS, adding 5 mL of warm trypsin to a T75 flask, covering the bottom of the flask with a trypsin solution, followed by aspirating at room temperature for 1 minute. • 6. The flask was allowed to stand in an oven at 37° C. for (maximum) 2 minutes for fibroblasts and (maximum) 7 minutes for keratinocytes. The cells were observed using a microscope and confirmed to be small and oval. • 7. Thereafter, the side of the T75 flask was lightly tapped to release the cells. […]
A general note: The colour change of resazurin is a common sign of viable cells or microbes.

Test [2] relates to Human dermal fibroblasts. As to the kind of experiment: Cell activity (AlamarBlue) after UV irradiation through a solution of the UV wavelength conversion substance. In kind it is cell-based. The following applies: UV 0, 10, 25, 50, 75 or 100 mJ/cm^2, FIG. 3. How it is done:
as §1

For C-phycocyanin, the “cell activity recovery effect, comparison of concentrations” value in the test with Human dermal fibroblasts [1] (0.4% versus 2% C-phycocyanin after 400 mJ/cm^2 pre-irradiation) is “equivalent at concentrations of 0.4% and 2%”. The “cell activity (relative fluorescence intensity) of cells with once decreased activity” value with Human dermal fibroblasts [1] (pre-irradiation 400 mJ/cm^2 without substance, then UV 0-200 mJ/cm^2 through 0.4% or 2% C-phycocyanin) is reported as “cell activity was recovered”. The “cell activity (relative fluorescence intensity)” value is “the decrease in cell activity was suppressed” with Human dermal fibroblasts [2] (0.4% C-phycocyanin solution) and “the cell activity was even increased” in the test with Human dermal fibroblasts [2] (2% C-phycocyanin solution).
